The values below are quoted from earlier work in US20160038452A1, “Methods for Administering a Depot of Disulfiram” (priority 2014, published 2016).

For data set [1] the following is noted: deep intramuscular injection, compared with patients on oral disulfiram.

As for `CCN(CC)C(=S)SSC(=S)N(CC)CC` [disulfiram], the “half-life of disulfiram in blood” value is 4 min. The “urinary levels of disulfiram metabolites” value in data set [1] was “insignificant”.
